Measured values as given in US20100311586A1, “HERBICIDAL COMBINATION” (Bayer CorpScience AG, priority 2007, published 2010).
Values joined by “and” are separate entries in the source; they are usually repeats but may differ in a detail not shown here. Equal entries are not always repeated.

System: Polygonum convolvulus
Assay: Post-emergence action against weeds, greenhouse pot test, visual scoring
Format: in vivo
Conditions: 11 days after application, 0%=no control, 100%=complete control
Description: Seeds or rhizome pieces of monocotyledonous and dicotyledonous weeds were placed in sandy loam soil in plastic pots, covered with soil and cultivated in a greenhouse under good growth conditions. Three weeks after sowing, the test plants were treated at the 2- to 4-leaf stage. The compounds according to the invention, formulated as wettable powders or as emulsion concentrates, were sprayed onto the green parts of the plants in various dosages at a water application rate of 100 to 800 I/ha (converted). After the test plants had been left to stand in the greenhouse for 10 to 28 days under optimum growth conditions, the effect of the preparations was scored visually in comparison to untreated controls.
0%=no control 100%=complete control

Nc1c([N+](=O)[O-])ccc(Oc2ccccc2)c1Cl [Compound B1-2, aclonifen]
Polygonum convolvulus Control in % (100 g of ai/ha): 20%

Cc1cc(Cl)ccc1O[C@H](C)C(=O)O [Compound B4-5, mecoprop-P]
Polygonum convolvulus Control in % (200 g of ai/ha): 50%

O=C(O)COc1ccc(Cl)cc1Cl [Compound B5-2, 2,4-D]
Polygonum convolvulus Control in % (200 g of ai/ha): 55%

Cc1cc(Cl)ccc1OCC(=O)O [Compound B5-3, MCPA]
Polygonum convolvulus Control in % (200 g of ai/ha): 50%

C#CCOC(=O)[C@@H](C)Oc1ccc(Oc2ncc(Cl)cc2F)cc1 [Compound B7-1, clodinafop-propargyl]
Polygonum convolvulus Control in % (20 g of ai/ha): 5%

COC(=O)C(C)Oc1ccc(Oc2ccc(Cl)cc2Cl)cc1 (centres unmarked) [Compound B7-3, diclofop-methyl]
Polygonum convolvulus Control in % (1000 g of ai/ha): 15%

CCOC(=O)[C@@H](C)Oc1ccc(Oc2nc3ccc(Cl)cc3o2)cc1 [Compound B7-5, fenoxaprop-P-ethyl]
Polygonum convolvulus Control in % (45 g of ai/ha): 35%

sodium salt of 2-iodo-N-[(4-methoxy-6-methyl-1,3,5-triazin-2-yl)carbamoyl]benzenesulfonamide [Compound A-2]
Polygonum convolvulus Control in % (2.5 g of ai/ha): 10% and 20%
